Assays:
[1] = molecular target: T1, RAMA (Oryctolagus cuniculus, UniProt P00883); assay: aldol addition, HPLC and NMR of products; format: biochemical; details: acceptor; co-substrate DHAP; 20 mM phosphate pH 6.8, 30 °C
T1 construct: gene ALDOA; commercial native enzyme from rabbit muscle (Sigma-Aldrich)
T1 sequence (P00883 2-364): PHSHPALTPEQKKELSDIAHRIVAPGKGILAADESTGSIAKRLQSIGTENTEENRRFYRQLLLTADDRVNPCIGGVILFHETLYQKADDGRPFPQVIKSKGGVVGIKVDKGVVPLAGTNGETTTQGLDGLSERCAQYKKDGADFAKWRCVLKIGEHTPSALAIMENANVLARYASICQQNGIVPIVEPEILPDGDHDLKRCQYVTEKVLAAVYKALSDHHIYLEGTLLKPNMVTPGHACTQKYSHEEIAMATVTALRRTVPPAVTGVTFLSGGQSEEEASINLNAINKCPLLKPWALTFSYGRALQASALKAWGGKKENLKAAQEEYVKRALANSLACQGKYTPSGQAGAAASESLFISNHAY

[2] = molecular target: T2, TmRhu-1PA (Thermotoga maritima, UniProt Q9X0G1); assay: aldol addition, HPLC and NMR of products; format: biochemical; details: acceptor; co-substrate DHAP; 20 mM phosphate pH 6.8, 45 °C
T2 construct: gene TM_1072; recombinant, cloned, expressed and purified as in earlier work (heat step at 80 °C, cobalt salts present)
T2 sequence (Q9X0G1 1-236): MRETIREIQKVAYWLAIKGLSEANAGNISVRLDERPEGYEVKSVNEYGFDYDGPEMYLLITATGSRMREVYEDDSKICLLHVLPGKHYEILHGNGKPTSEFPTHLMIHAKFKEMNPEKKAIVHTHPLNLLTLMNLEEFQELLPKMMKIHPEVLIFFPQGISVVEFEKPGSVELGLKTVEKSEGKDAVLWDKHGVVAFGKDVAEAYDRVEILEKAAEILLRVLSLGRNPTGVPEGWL

Row | Structure (SMILES) | aldol addition, HPLC and NMR of products [1] | aldol addition, HPLC and NMR of products [2]
1 | Nc1ccn(CC=O)c(=O)n1 [1b, cytosyl acetaldehyde] | A similar reaction profile was observed when the cytosine derivative | –
2 | Cc1cn(CC=O)c(=O)[nH]c1=O [1a, thyminyl acetaldehyde] | – | biotransformation with the thymine derivative (1a) and TmRhu-1PA as a biocatalyst
